Experiments:
[1] = target: T1, rat mGluR5 receptor (Rattus norvegicus, UniProt P31424); test: [3H]-MPEP binding HEK-293 cell membranes expressing a rat mGluR5 receptor; conditions: displacement of 4 nM [3H]-MPEP, HEK-293 cell membranes expressing rat mGluR5, 60 minute at room temperature; read-out: mGluR5 Ligand Binding DR Ki
T1 construct: expressed in transfected cells; host or cells: HEK-293
Description: TITLE: [^3H]-MPEP binding HEK-293 cell membranes expressing a rat mGluR5 receptor. PURPOSE: To identify high affinity compounds at the rat mGluR5 receptor based on their ability to displace the mGluR5 negative allosteric modulator, MPEP.
mGluR5 expressing HEK-293 cells are scraped off the plate, transferred to centrifuge tubes, and washed twice by centrifugation (2000 rpm for 10 min., 4° C.) in buffer (50 mM Tris pH 7.5). The resulting pellets are aliquoted and placed at −80° C. On the day of assay, the cells are thawed on ice, and resuspended in buffer. The binding assay is performed in a 96 well microtiter plate in a total volume of 250 μL. Non-specific binding is determined in the presence of 10 μM MPEP. Binding reaction includes a final radioligand [^3H]-MPEP concentration of 4 nM and 12-25 ug membrane protein per well. Following a 60 minute incubation at room temperature, the reaction is terminated by the addition of ice cold buffer and rapid filtration through a GF/B filter presoaked for 30 minutes in 0.5% PEI. Compounds are initially tested in a single point assay to determine percent inhibition at 10 μM. Subsequently, Ki values are determined for compounds defined to be active.
% inhibition and Ki values generated by GraphPad Prism and Excel Fit. IC50 values are calculated using GraphPad by fitting to a 1 or 2 site-binding model. Ki values are calculated from the apparent IC50 values using the Cheng-Prussof equation:
(§1) where [L]=concentration of free radioligand and Kd=dissociation constant of radioligand for the receptor. TITLE: Identification of metabotropic glutamate receptor 5 antagonists using a stable, sensitive fluorescence-based screening system PURPOSE: The aim of the research presented here was to develop a robust functional assay to measure changes in intracellular calcium, with the goal of identifying potent mGluR5 antagonists.

[2] = target: T2, metabotropic glutamate receptor 5 (Rattus norvegicus, UniProt P31424); test: FLIPR Calcium 3 fluorescence-based functional assay of intracellular calcium, mGluR5 antagonist activity; assay type: cell-based; conditions: inhibition of glutamate (EC90, ~50 uM) stimulated calcium levels, mGluR5 HEK-293 cells; read-out: mGluR5 FLIPR MP Antagonist DR IC50
T2 construct: expressed in transfected cells; host or cells: HEK-293
Description: as §1
The FLIPR Calcium 3 Assay Kit is designed to work with many cell types, both adherent and non-adherent. Optimal cell conditions for the FLIPR Calcium 3 Assay Kit require the creation of a confluent cell monolayer before placing the plates in FLIPR or FlexStation. In general, we start with 50,000 mGluR5 HEK-293 cells/well for a 96-well plate. For adherent cells, seeding cells overnight with a plating volume of 100 μL/well worked for 96-well plates.
Remove cell plates from the incubator. Remove the supernatant medium. Add 180 ul of Loading Buffer to each well (for 96-well plates). HBSS buffer component B) pipette 100 mL of 10× Hank's Balanced Salt Solution and 20 mL of 1M Hepes buffer
Incubate cell plates for 1 hour at 37° C. and then keep the plates at room temperature until used.
After incubation, transfer the plates directly to FLIPR and begin the calcium assay as described in the FLIPR system manual. For a signal test, a starting average count of ˜10,000 is recommended. Recommended experimental setup parameters are as follows. Faster addition speeds can lead to better mixing of compounds and lower signal variance across the plate.
Test or reference compound is added to the 96-well plate (manually). […] Relative Fluorescence Units (RFUs) are recorded over a given time period (stated above) depending on the platform system used.
For antagonists, results are expressed as % inhibition of glutamate stimulated Calcium levels. IC50 values were calculated by Prism GraphPad using a 4-parameter logistic equation. IC50 values are calculated using GraphPad by fitting to a 1 site-model.

T2 sequence (P31424 21-1203): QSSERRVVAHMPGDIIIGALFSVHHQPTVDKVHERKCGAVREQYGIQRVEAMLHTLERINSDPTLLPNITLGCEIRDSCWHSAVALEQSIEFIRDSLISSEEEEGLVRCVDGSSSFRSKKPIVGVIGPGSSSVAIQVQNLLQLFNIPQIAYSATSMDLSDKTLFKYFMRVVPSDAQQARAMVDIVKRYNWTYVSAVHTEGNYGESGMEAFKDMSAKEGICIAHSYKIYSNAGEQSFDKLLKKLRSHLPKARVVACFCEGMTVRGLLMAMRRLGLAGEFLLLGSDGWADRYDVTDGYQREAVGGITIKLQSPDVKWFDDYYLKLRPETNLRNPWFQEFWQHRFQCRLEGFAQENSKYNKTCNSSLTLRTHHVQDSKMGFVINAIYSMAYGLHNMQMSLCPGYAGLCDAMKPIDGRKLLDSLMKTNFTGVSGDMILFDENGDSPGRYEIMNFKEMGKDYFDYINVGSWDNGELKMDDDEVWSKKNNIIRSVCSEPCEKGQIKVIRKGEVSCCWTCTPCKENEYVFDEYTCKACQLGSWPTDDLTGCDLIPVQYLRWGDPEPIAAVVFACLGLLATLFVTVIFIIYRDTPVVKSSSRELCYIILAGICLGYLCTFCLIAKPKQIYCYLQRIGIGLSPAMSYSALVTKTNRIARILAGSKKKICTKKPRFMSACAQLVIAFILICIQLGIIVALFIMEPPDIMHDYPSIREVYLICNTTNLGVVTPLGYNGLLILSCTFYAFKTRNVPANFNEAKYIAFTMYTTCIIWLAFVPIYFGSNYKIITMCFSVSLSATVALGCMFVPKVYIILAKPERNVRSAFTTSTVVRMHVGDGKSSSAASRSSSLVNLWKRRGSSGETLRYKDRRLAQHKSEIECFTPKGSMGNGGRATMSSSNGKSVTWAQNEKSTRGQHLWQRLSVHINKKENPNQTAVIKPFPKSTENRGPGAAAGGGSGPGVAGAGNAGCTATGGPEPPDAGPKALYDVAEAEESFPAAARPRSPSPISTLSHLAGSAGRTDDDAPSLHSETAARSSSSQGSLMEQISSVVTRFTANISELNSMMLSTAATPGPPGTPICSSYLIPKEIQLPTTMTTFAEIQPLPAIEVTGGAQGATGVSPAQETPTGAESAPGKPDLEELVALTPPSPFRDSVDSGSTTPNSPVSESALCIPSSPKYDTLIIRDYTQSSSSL
T1 sequence (P31424 21-1203): as above

Row | Structure (SMILES) | Ki [1] [nM] | IC50 [2] [nM]
1 | COc1ccc(C(=O)N2CCc3ncc(C(F)(F)F)cc3C2)cc1C#Cc1ccccn1 [Example 52, 6-{[4-methoxy-3-(pyridin-2-ylethynyl)phenyl]carbonyl}-3-(trifluoromethyl)-5,6,7,8-tetrahydro-1,6-naphthyridine] | 29 | 49
2 | COc1ccc(C(=O)N2Cc3cccnc3C2)cc1C#Cc1ccccn1 [Example 54, 6-{[4-methoxy-3-(pyridin-2-ylethynyl)phenyl]carbonyl}-6,7-dihydro-5H-pyrrolo[3,4-b]pyridine] | 26 | 8
3 | COc1ccc(C(=O)N2CCOc3ccccc3C2)cc1C#Cc1ccccn1 [Example 55, 4-{[4-methoxy-3-(pyridin-2-ylethynyl)phenyl]carbonyl}-2,3,4,5-tetrahydro-1,4-benzoxazepine] | 29 | 12
4 | COc1ccc(C(=O)N2CCc3[nH]cnc3C2)cc1C#Cc1ccccn1 [Example 58, 5-{[4-methoxy-3-(pyridin-2-ylethynyl)phenyl]carbonyl}-4,5,6,7-tetrahydro-1H-imidazo[4,5-c]pyridine] | 57 | 18
5 | COc1ccc(C(=O)N2CCCc3ccccc3C2)cc1C#Cc1ccccn1 [Example 59, 2-{[4-methoxy-3-(pyridin-2-ylethynyl)phenyl]carbonyl}-2,3,4,5-tetrahydro-1H-2-benzazepine] | 42 | 29
6 | O=C(c1ccc(Cl)c(C#Cc2ccccn2)c1)N1CCc2c(F)ccc(F)c2C1 [Example 63, 2-{[4-chloro-3-(pyridin-2-ylethynyl)phenyl]carbonyl}-5,8-difluoro-1,2,3,4-tetrahydroisoquinoline] | 0.2 | 14
7 | O=C(c1ccc(Cl)c(C#Cc2ccccn2)c1)N1CCc2[nH]cnc2C1 [Example 67, 5-{[4-chloro-3-(pyridin-2-ylethynyl)phenyl]carbonyl}-4,5,6,7-tetrahydro-1H-imidazo[4,5-c]pyridine] | 16 | 27
8 | O=C(c1ccc(Cl)c(C#Cc2ccccn2)c1)N1CCc2ncccc2C1 [Example 68, 6-{[4-chloro-3-(pyridin-2-ylethynyl)phenyl]carbonyl}-5,6,7,8-tetrahydro-1,6-naphthyridine] | 4 | 26
9 | O=C(c1ccc(Cl)c(C#Cc2ccccn2)c1)N1CCc2ccc(F)cc2C1 [Example 70, 2-{[4-chloro-3-(pyridin-2-ylethynyl)phenyl]carbonyl}-7-fluoro-1,2,3,4-tetrahydroisoquinoline] | 0.4 | 37
10 | O=C(c1ccc(F)c(C#Cc2ccccn2)c1)N1CCc2ccccc2C1 [Example 71, 2-[4-Fluoro-3-(pyridin-2-ylethynyl)benzoyl]-1,2,3,4-tetrahydroisoquinoline] | 5 | 67
11 | O=C(c1ccc(F)c(C#Cc2ccccn2)c1)N1CCc2c(Cl)cccc2C1 [Example 73, 5-chloro-2-[4-fluoro-3-(pyridin-2-ylethynyl)benzoyl]-1,2,3,4-tetrahydroisoquinoline] | 1 | 40
12 | O=C(c1ccc(F)c(C#Cc2ccccn2)c1)N1Cc2ccccc2C1 [Example 74, 2-[4-fluoro-3-(pyridin-2-ylethynyl)benzoyl]isoindoline] | 11 | 62
13 | CCOc1ccc(C(=O)N2CCc3ccc(Cl)cc3C2)cc1C#Cc1ccccn1 [Example 76, 7-chloro-2-[4-ethoxy-3-(pyridin-2-ylethynyl)benzoyl]-1,2,3,4-tetrahydroisoquinoline] | 1 | 42
14 | CCOc1ccc(C(=O)N2CCc3c(Cl)cccc3C2)cc1C#Cc1ccccn1 [Example 77, 5-chloro-2-[4-ethoxy-3-(pyridin-2-ylethynyl)benzoyl]-1,2,3,4-tetrahydroisoquinoline] | 1 | 41
15 | O=C(c1ccc(OCC2CC2)c(C#Cc2ccccn2)c1)N1CCc2ccccc2C1 [Example 79, 2-{[4-(Cyclopropylmethoxy)-3-(pyridin-2-ylethynyl)phenyl]carbonyl}-1,2,3,4-tetrahydroisoquinoline] | 23 | 34
16 | Cc1ccc(C(=O)N2CCc3ccccc3C2)cc1C#Cc1ccccn1 [Example 82, 2-[4-Methyl-3-(pyridin-2-ylethynyl)benzoyl]-1,2,3,4-tetrahydroisoquinoline] | 1 | 27

Continued by falling Ki [1], values first:

Row | Ki [1] [nM] | IC50 [2] [nM] | Structure (SMILES)
17 | 27 | 4 | COc1ccc(C(=O)N2CCc3[nH]ncc3C2)cc1C#Cc1ccccn1 [Example 53, 5-{[4-methoxy-3-(pyridin-2-ylethynyl)phenyl]carbonyl}-4,5,6,7-tetrahydro-1H-pyrazolo[4,3-c]pyridine]
18 | 15 | 17 | COc1ccc(C(=O)N2CCc3ccccc3CC2)cc1C#Cc1ccccn1 [Example 57, 3-{[4-methoxy-3-(pyridin-2-ylethynyl)phenyl]carbonyl}-2,3,4,5-tetrahydro-1H-3-benzazepine]
19 | 5 | 9 | O=C(c1ccc(Cl)c(C#Cc2ccccn2)c1)N1CCc2cccnc2C1 [Example 62, 7-{[4-chloro-3-(pyridin-2-ylethynyl)phenyl]carbonyl}-5,6,7,8-tetrahydro-1,7-naphthyridine]
20 | 5 | 12 | CCOc1ccc(C(=O)N2Cc3ccccc3C2)cc1C#Cc1ccccn1 [Example 78, 2-[4-ethoxy-3-(pyridin-2-ylethynyl)benzoyl]isoindoline]
21 | 4 | 11 | O=C(c1ccc(Cl)c(C#Cc2ccccn2)c1)N1CCc2[nH]ncc2C1 [Example 66, 5-{[4-chloro-3-(pyridin-2-ylethynyl)phenyl]carbonyl}-4,5,6,7-tetrahydro-1H-pyrazolo[4,3-c]pyridine]
22 | 3 | 18 | O=C(c1ccc(Cl)c(C#Cc2ccccn2)c1)N1Cc2cccnc2C1 [Example 65, 6-{[4-chloro-3-(pyridin-2-ylethynyl)phenyl]carbonyl}-6,7-dihydro-5H-pyrrolo[3,4-b]pyridine]
23 | 3 | 11 | CCOc1ccc(C(=O)N2CCc3ccccc3C2)cc1C#Cc1ccccn1 [Example 75, 2-[4-Ethoxy-3-(pyridin-2-ylethynyl)benzoyl]-1,2,3,4-tetrahydroisoquinoline]
24 | 2 | 29 | O=C(c1ccc(F)c(C#Cc2ccccn2)c1)N1CCc2ccc(Cl)cc2C1 [Example 72, 7-chloro-2-[4-fluoro-3-(pyridin-2-ylethynyl)benzoyl]-1,2,3,4-tetrahydroisoquinoline]
25 | 1 | 6 | O=C(c1ccc(Cl)c(C#Cc2ccccn2)c1)N1Cc2ccccc2C1 [Example 60, 2-[4-Chloro-3-(pyridin-2-ylethynyl)benzoyl]isoindoline]
26 | 1 | 26 | Cc1ccc(C(=O)N2Cc3ccccc3C2)cc1C#Cc1ccccn1 [Example 81, 2-[4-Methyl-3-(pyridin-2-ylethynyl)benzoyl]isoindoline]
27 | 0.4 | 13 | O=C(c1ccc(Cl)c(C#Cc2ccccn2)c1)N1CCc2ccccc2C1 [Example 61, 2-[4-Chloro-3-(pyridin-2-ylethynyl)benzoyl]-1,2,3,4-tetrahydroisoquinoline]
28 | 0.4 | 16 | O=C(c1ccc(Cl)c(C#Cc2ccccn2)c1)N1CCc2c(F)cccc2C1 [Example 64, 2-{[4-chloro-3-(pyridin-2-ylethynyl)phenyl]carbonyl}-5-fluoro-1,2,3,4-tetrahydroisoquinoline]
29 | 0.1 | 134 | O=C(c1ccc(Cl)c(C#Cc2ccccn2)c1)N1CCc2c(Cl)cccc2C1 [Example 69, 5-chloro-2-{[4-chloro-3-(pyridin-2-ylethynyl)phenyl]carbonyl}-1,2,3,4-tetrahydroisoquinoline]
